Measurements as given in US9131722B2, “Composition comprising the extract of Actinidia arguta and related species for the prevention and treatment of allergic disease and non-allergic inflammatory disease” (VIROMED CO., LTD., priority 2002, dated 2015).

Key:
[1] = system: splenocytes of Nc/Nga mouse; experiment: Nc/Nga mouse model: Th1/Th2 cytokine production by ConA-stimulated splenocytes; assay type: in vivo; settings: ConA 1 μg/ml, 3 days
Protocol: For experiment, 15 of Nc/Nga mice (7 weeks after birth, female) were divided into 3 groups and adapted to new circumstance for 1 week. […] To compare the progress of dermatitis symptom, the scratching frequency of mouse (the time spent scratching during 20 min-observation) was measured when mice is grown at the age of 12 and 14 weeks. 16 weeks old mouse was sacrificed and the quantity of IgE, IgG1 and IgG2a level in serum were measured by ELISA method. Also, to compare the production of Th1/Th2 cytokines, splenocyte was prepared by conventional method from each mouse, transferred into 24-well plate (5×10^6 cells/ml/well) and incubated with ConA (1 μg/ml) for 3 days and then the levels of IL-4, IL-5, IL-12, and Interferon-γ were measured by ELISA method.

[2] = system: splenocytes of ovalbumin-sensitized mouse; experiment: Ovalbumin-sensitized mouse model: expression of cytokines by splenocytes re-stimulated with ovalbumin (ELISA); assay type: in vivo; settings: splenocytes of OVA-stimulated mouse, ovalbumin 100 μg/ml, 3 days
Protocol: The ovalbumin-sensitized mouse model is commonly used as animal model of allergy. Female BALB/c mice, aged 6 weeks (Seoul national university animal experimental center) were adapted to the environment for 7 days.
On the 25th day, mice were sacrificed and blood serum and spleen was collected therefrom.
Each prepared splenocytes was pooled and homogenized under an aseptic condition.
Splenocytes prepared as above were inoculated in 24-well plate (5×10^6 cell/ml/well), treated with 100 μg/ml of ovalbumin, and incubated at 37° C. under an atmosphere containing 5% CO2 for 3 days. After cultivation was finished, a culture solution was gathered and then the concentration of cytokines (IL-4, IL-5, IL-12 and interferon-γ) related to allergy were measured by commercial ELISA kits.

[3] = system: ovalbumin-sensitized mouse; experiment: Ovalbumin-sensitized mouse model: ovalbumin-specific IgE, IgG1, IgG2a, IgG2b in serum (ELISA); assay type: in vivo; settings: BALB/c, oral 11 days, extract 300 μg/mouse/day, dexamethasone 10 μg/mouse/day
Protocol: The ovalbumin-sensitized mouse model is commonly used as animal model of allergy. Female BALB/c mice, aged 6 weeks (Seoul national university animal experimental center) were adapted to the environment for 7 days. At the time of 7 weeks after birth, 100 μl of emulsion, mixed 25 μg of ovalbumin (chicken egg albumin, crude grade V, Sigma Co., Ltd.) with 2.25 mg of aluminum hydroxide (ImujectAlum, Pierce Co., Ltd.) was injected into mouse peritoneal cavity and 14 days after, it was injected once more for boosting.
And then 30 mice were divided into 3 groups and each group was orally administered with the hardy kiwifruit water extract of Example 1-1 (300 μg/mouse/day), dexamethasone (10 μg/mouse/day), or drinking water (100 μg/mouse/day) for 11 days, respectively. On the 25th day, mice were sacrificed and blood serum and spleen was collected therefrom.
In serum collected in Example 2-1, the serum levels of ovalbumin-specific IgE, IgG1, IgG2a and IgG2b were measured by ELISA kits (PharMingen Co., Ltd).

Nc/Nga mouse = Nc/Nga mouse model of atopic dermatitis: scratching and serum IgE, IgG1, IgG2a; assay type: in vivo; settings: oral 8 weeks, extract 300 μg/mouse/day, dexamethasone 10 μg/mouse/day, 16 weeks old
Protocol: To confirm anti-allergic effect of hardy kiwifruit extract in animals, Nc/Nga mouse model that has been widely used as an animal model for human atopic dermatitis study was employed.
For experiment, 15 of Nc/Nga mice (7 weeks after birth, female) were divided into 3 groups and adapted to new circumstance for 1 week. Since 8 weeks after birth, the hardy kiwifruit extract (300 μg/mouse/day) prepared in example 1-1 as a treatment group had been orally administered and dexamethasone (10 μg/mouse/day) or drinking water (100 μg/mouse/day) as control groups had been orally administered for 8 weeks. To compare the progress of dermatitis symptom, the scratching frequency of mouse (the time spent scratching during 20 min-observation) was measured when mice is grown at the age of 12 and 14 weeks. 16 weeks old mouse was sacrificed and the quantity of IgE, IgG1 and IgG2a level in serum were measured by ELISA method. Also, to compare the production of Th1/Th2 cytokines, splenocyte was prepared by conventional method from each mouse, transferred into 24-well plate (5×10^6 cells/ml/well) and incubated with ConA (1 μg/ml) for 3 days and then the levels of IL-4, IL-5, IL-12, and Interferon-γ were measured by ELISA method.

U266B1 cell line = experiment: Inhibition of IgE production in LPS-stimulated U266B1 cell line (ELISA); assay type: cell-based, human; settings: 7 days
Protocol: To confirm the inhibitory effect of hardy kiwifruit extraction on IgE production, U266B1 cell (lymphoblastoma cell line) was used. U266B1 is cell line of human B cell, which produces IgE.
U266B1 cells (American Type Culture Collection, Manassas, Va.) was cultured at 37° C. under 5% CO2 circumstances in 24-well culture plate containing RPMI-1640 medium (15% FBS, 2 mM L-glutamine, 10 mM HEPES, 1 mM sodium pyruvate, 50 μg streptomycin and 100 U/ml penicillin). […] Control was treated with 2 μM dexamethasone or medium (RPMI-1640). After treatment, cells were cultured for 7 days and IgE concentration of medium was measured by ELISA kit (PharMingen; San Diego, Calif.).
Silica gel column chromatography fraction [1], [2], [3] and [4] were treated to U266B1 cell line (at 10 μg/ml).

[4] = system: edema induced by arachidonic acid in the ears of mice; experiment: Edema induced by arachidonic acid in the ears of mice; assay type: in vivo; settings: BALB/c, p.o. 1 hour before arachidonic acid, extract 200 mg/kg, indomethacin 10 mg/kg
Protocol: 15 mice (8 week old male BALB/c) were fasted for 18 hours with free access to water and divided into 3 groups. Inflammation was induced by topical application of arachidonic acid (0.5 mg/20 μl acetone) to the right ear of each mouse. The left ear was used as a negative control and received the vehicle (20 μl acetone). The hardy kiwifruit extract (200 mg/kg in water) was administered p.o. 1 hour prior to arachidonic acid application. The positive control group received indomethacin (10 mg/kg, p.o.) 1 hour before arachidonic acid application. Inflammation was followed for 1 hour and thereafter the animals were sacrificed. A section of 6 mm diameter disc from each ear was obtained and weighed. The edema index was assessed using the increase in the weight of the treated right ear punch biopsy over that of the untreated left ear.

[5] = system: mice peritoneal mast cells; experiment: Inhibition of histamine release from mice peritoneal mast cells; assay type: cell-based; settings: Mus musculus, Mast cell, 0.5 h; anti-DNP24-BSA IgE sensitized, DNP24-BSA 20 ng/ml 30 min; extract 100 μg/ml, Cromolyn 10^−4 M
Protocol: Each mouse was anesthetized with ether, and injected with 20 ml of Tyrode buffer B (NaCl, glucose, NaHCO3, KCl, NaH2PO4) containing 0.1% gelatin into the peritoneal cavity; then the abdomen was gently massaged for about 90 seconds. The peritoneal cavity was carefully opened, and the fluid containing peritoneal cells was aspirated by pasteur pipette. The peritoneal cells were then sedimented at 150×g for 10 min. at room temperature and resuspended in Tyrode buffer B. Mast cells were separated from the major components of rat peritoneal cells as described in the literature (Yurt et al., J Exp Med., 1; 146(5), pp 1405-19, 1977). Peritoneal cells suspended in 1 ml of Tyrode buffer B were layered onto 2 ml of 0.225 g/ml metrizamide (density 1.120 g/ml) and centrifuged at room temperature for 15 min at 400×g. […] Mast cells were stimulated with 20 ng/ml of DNP24-BSA as an antigen for 30 min., and histamine released into the medium was measured by […]). Inhibition of histamine release was calculated as following empirical formula 1; Percent inhibition=100×(A-B)/(A-C) [Empirical Formula 1] • A: Stimulated level (Histamine release with IgE-stimulation). • B: Suppressed level (Histamine release with IgE-stimulation and drug treatment). • C: Basal level (Histamine release without IgE-stimulation).

Compound: C[C@@H]1C[C@H]2[C@@H]3CCC4=CC(=O)C=C[C@]4(C)[C@@]3(F)[C@@H](O)C[C@]2(C)[C@@]1(O)C(=O)CO [Dexamethasone, dexamethasone]
- IL-4 ([1]; drinking water 151.9): 42.7 ± 19.4 pg/mL
- IL-5 ([1]; drinking water 778.3): 646.5 ± 51.7 pg/mL
- IL-12 ([1]; drinking water 1925.7): 201.2 ± 12.1 pg/mL
- Interferon-γ ([1]; drinking water 10407.5): 10096.4 ± 192.4 pg/mL
- IL-4 ([2]; drinking water 159.5, normal mouse 21.6): 23.2 ± 8.7 pg/mL
- IL-12 ([2]; drinking water 906.2, normal mouse 1626.0): 297.7 ± 16.4 pg/mL
- Interferon-γ ([2]; drinking water 1016.0, normal mouse 14.1): 470.5 ± 38.6 pg/mL
- IL-5 ([2]; drinking water 2573.6, normal mouse 0.5): 884.1 ± 80.7 pg/mL
- ovalbumin-specific IgG2b in serum ([3]; normal 1.0, drinking water 1.4, the values are: IgG2b relative to normal mice): 1.2 ± 0.1
- ovalbumin-specific IgG2a in serum ([3]; normal 1.0, drinking water 2.1, the values are: IgG2a relative to normal mice): 1.9 ± 0.4
- ovalbumin-specific IgG1 in serum ([3]; normal 1.0, drinking water 5.1, the values are: IgG1 relative to normal mice): 3.1 ± 0.3
- ovalbumin-specific IgE in serum ([3]; normal 1.0, drinking water 7.6, the values are: IgE relative to normal mice): 2 ± 0.6
- IgG2a in serum (Nc/Nga mouse; drinking water 177.5): 148.0 ± 14.8 pg/mL
- IgG1 in serum (Nc/Nga mouse; drinking water 242.2): 247.3 ± 10.8 pg/mL
- IgE in serum (Nc/Nga mouse; drinking water 1572.9): 130.0 ± 55.3 pg/mL
- IgE (IU/ml) (U266B1 cell line; U266B1, LPS 2 μg/ml, extracts 100 μg/ml, dexamethasone 2 μM, LPS+medium 392.9, no LPS 187.8): 203.6 ± 30.9 IU/ml
- IgE (IU/ml) (U266B1 cell line; U266B1, LPS stimulation, fractions at 30 μg/ml, LPS+medium 212.5, no LPS 117.4): 138.9 ± 2.1 IU/ml
- IgE (IU/ml) (U266B1 cell line; U266B1, LPS stimulation, silica gel fractions at 10 μg/ml, LPS+medium 540.4, no LPS 379.7): 277.6 ± 12.4 IU/ml

Compound: COc1ccc2c(c1)c(CC(=O)O)c(C)n2C(=O)c1ccc(Cl)cc1 [Indomethacin, indomethacin]
- Index of edema ([4]; control 7.2 ± 1.1): 1.3 ± 0.3 mg
- inhibition at 10 mg/kg ([4]; Mus musculus, po, read-out: Inhibition rate (%)): 81.9%

Compound: O=C(O)c1cc(=O)c2c(OCC(O)COc3cccc4oc(C(=O)O)cc(=O)c34)cccc2o1 [Cromolyn]
- inhibition at 100 µM [5]: 52 ± 13%
